Experimental data published in ChEMBL document CHEMBL1133841 (Bioorg Med Chem Lett, 2001).

Target: Serine/threonine-protein phosphatase PP1 catalytic subunit
Assay: Inhibitory concentration against protein phosphatase 1 was determined

Row | Structure (SMILES) | IC50
1 | CCOC(=O)C1C(C(=O)O)[C@@H]2CC[C@H]1O2 (stereo not given in full) | 2.96 µM

Target: T1, Serine-threonine protein phosphatase 2A regulatory subunit (Gallus gallus) (UniProt Q8AWE3)
T1 sequence (whole entry): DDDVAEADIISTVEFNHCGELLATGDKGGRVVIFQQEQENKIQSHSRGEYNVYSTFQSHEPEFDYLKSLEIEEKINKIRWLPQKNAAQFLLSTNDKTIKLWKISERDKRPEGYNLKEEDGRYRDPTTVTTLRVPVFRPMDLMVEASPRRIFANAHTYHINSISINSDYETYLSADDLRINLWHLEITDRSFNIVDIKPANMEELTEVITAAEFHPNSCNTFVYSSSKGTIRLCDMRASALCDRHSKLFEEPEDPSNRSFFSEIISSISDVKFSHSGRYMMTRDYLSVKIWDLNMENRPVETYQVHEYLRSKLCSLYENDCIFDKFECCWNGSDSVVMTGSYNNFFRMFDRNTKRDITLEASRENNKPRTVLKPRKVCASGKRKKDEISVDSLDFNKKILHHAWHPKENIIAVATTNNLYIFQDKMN
Assay: Selectivity expressed as the ratio of Protein phosphatase 2A/Protein phosphatase 1 was determined

Row | Structure (SMILES) | Selectivity
2 | CCOC(=O)C1C(C(=O)O)[C@@H]2CC[C@H]1O2 (stereo not given in full) | 6.5

Target: T2, Serine-threonine protein phosphatase 2A regulatory subunit (Gallus gallus, UniProt Q8AWE3)
T2 sequence (Q8AWE3 whole entry): T1 sequence (whole entry)
Assay: Inhibitory concentration against protein phosphatase 2A (PP2A) was determined

Row | Structure (SMILES) | IC50
3 | O=C(O)[C@@H](Cc1ccccc1)N1C(=O)[C@@H]2[C@H](C1=O)[C@H]1CC[C@@H]2O1 | > 1000 µM
4 | O=C(O)[C@H](Cc1c[nH]cn1)N1C(=O)[C@@H]2[C@H](C1=O)[C@H]1CC[C@@H]2O1 | 1.35 µM
5 | C[C@H](C(=O)O)N1C(=O)[C@@H]2[C@H](C1=O)[C@H]1CC[C@@H]2O1 | 150 µM
6 | O=C(O)CC[C@H](C(=O)O)N1C(=O)[C@@H]2[C@H](C1=O)[C@H]1CC[C@@H]2O1 | 32 µM
7 | C[C@@H](C(=O)O)N1C(=O)[C@@H]2[C@H](C1=O)[C@H]1CC[C@@H]2O1 | > 1000 µM
8 | CSC[C@@H](C(=O)O)N1C(=O)[C@@H]2[C@H](C1=O)[C@H]1CC[C@@H]2O1 | > 1000 µM
9 | O=C(O)[C@@H](Cc1cnc[nH]1)N1C(=O)[C@@H]2[C@H](C1=O)[C@H]1CC[C@@H]2O1 | 0.81 µM
10 | CC(C)C[C@H](C(=O)O)N1C(=O)[C@@H]2[C@H](C1=O)[C@H]1CC[C@@H]2O1 | > 1000 µM
11 | O=C(O)[C@H](Cc1c[nH]c2ccccc12)N1C(=O)[C@@H]2[C@H](C1=O)[C@H]1CC[C@@H]2O1 | 105 µM
12 | O=C(O)[C@@H](Cc1c[nH]c2ccccc12)N1C(=O)[C@@H]2[C@H](C1=O)[C@H]1CC[C@@H]2O1 | 157 µM
13 | CC(C)C[C@@H](C(=O)O)N1C(=O)[C@@H]2[C@H](C1=O)[C@H]1CC[C@@H]2O1 | > 1000 µM
14 | O=C(O)[C@H](Cc1ccccc1)N1C(=O)[C@@H]2[C@H](C1=O)[C@H]1CC[C@@H]2O1 | > 1000 µM

System: not listed separately
Assay: Selectivity expressed as the ratio of PP2A/PP1 was determined

Row | Structure (SMILES) | Selectivity
15 | O=C(O)CC[C@H](C(=O)O)N1C(=O)[C@@H]2[C@H](C1=O)[C@H]1CC[C@@H]2O1 | 3
